# Measured values as given in patent US7371779B2, “Synergistic compositions of N-acylhomoserine lactones and 4-quinolones” (The Secretary of State for Defense Science and Technology, priority 2001, dated 2008).
# Like-named read-outs stand apart in the source and are kept apart here.
# Key:
# murine splenocytes = experiment: ConA mitogen-stimulated proliferation of murine splenocytes ([3H]-thymidine incorporation); format: cell-based, mouse (BALB/c); settings: ConA 1 μg/ml, 100,000 spleen cells, Experiment I; read-out: IC50 in inhibition of ConA induced murine splenocyte proliferation
# Procedure: (§1) Proliferation was assessed by the incorporation of [^3H]-thymidine into DNA. Eight-week-old female BALB/c mice were obtained from Harlan (Bicester, Oxon, UK) and given food and water ad libitum. Splenocyte suspensions were prepared by removing the spleens and placing them into RPMI 1640 medium. The spleens were forced through 70-μm-pore-size wire gauzes using the plunger from a 5-ml syringe to produce a single cell suspension. The cells were pelleted by centrifugation, and erythrocytes were lysed with 0.017 M Tris, 0.144 M ammonium chloride buffer, pH 7.2. Leucocytes were washed twice with RPMI 1640 medium with 2% (vol/vol) foetal calf serum (FCS) and resuspended in complete cell culture medium (CTCM) consisting of RPMI 1640 medium with 5% FCS, 2 mM L-glutamine, and 5×10^−5 M 2-mercaptoethanol. HSL compounds were tested at doubling down dilutions ranging from 1 mM to 0.1 μM in a final volume of 200 μl of CTCM, containing ConA (Sigma, Poole, UK) at 1 μg/ml and 100,000 spleen cells. Following incubation for 48 h at 37° C. in 5% CO2-air, 0.25 μCi [^3H]-thymidine (Amersham) in 10 μl volume made up in RPMI 1640 medium was added and the cells were incubated for a further 24 h. Cells were harvested onto fibreglass filters with a Packard filtermate harvester. After the addition of 25 μl of MicroScint-O (Packard) to each well the filters were counted with the Packard TopCount scintillation counter.
# (§2) Mitogen (Concanavalin A) induced murine splenocyte proliferation was indicated by the incorporation of tritated thymidine into the DNA in the mouse spleen cells as shown by counts per minute using the scintillation counter. The inhibitory effect of an HSL compound being tested on cell proliferation was indicated by a reduction in counts per minute.
# as §1, with “70 μm pore size” for “70-μm-pore-size”, “5 ml” for “5-ml”, “The title compound was” for “HSL compounds were”, “dilutions” for “dilutions ranging from 1 mM to 0.1 μM in a final volume of 200 μl of CTCM,”, “g/ml” for “μg/ml”, “COrair,” for “CO2-air,”
# as §2, with “the title” for “an HSL”
# human PBMC = experiment: ConA mitogen-stimulated proliferation of human PBMC ([3H]-thymidine incorporation); format: cell-based; settings: Experiment II, read-out: IC50 in inhibition of ConA induced cell proliferation of PBMC
# Procedure: Blood specimens were obtained with consent from healthy human volunteers. Human peripheral blood mononuclear cells (PBMC) were isolated from heparinised whole blood by buoyant density centrifugation over Histopaque 1077 (Sigma, Poole, UK) at 600 g for 20 minutes. PBMC harvested from the ‘buffy’ layers were washed twice with RPMI 1640 medium and resuspended in CTCM. […] Human PBMC were incubated for 48 h at 37° C. in 5% CO2-air, followed by pulsing with 0.25 μCi [^3H]-thymidine (see above). After a further incubation of 24 h cells were harvested onto fibreglass filters and then counted in the presence of MicroScint-O with the Packard TopCount.
# Concanavalin induced cell proliferation of human peripheral blood mononuclear cells (PBMC) was tracked, as described in I above, by a measurement of counts per minute using the scintillation counter. The inhibitory effect of an HSL compound being tested on cell proliferation was indicated by a reduction in counts per minute. […] Columns B, C and D represent different sources of human PBMC samples used.
# Plots of counts per minute (cpm) against the concentration of the quorum sensing molecules and the vehicle are shown in FIG. 11.
# TNF-alpha = TNF-alpha production from LPS-stimulated human PBMC (sandwich ELISA); format: cell-based; settings: Experiment III; read-out: IC50 in inhibition of LPS induced production of TNF-α by human PBMC
# Procedure: Bacterial lipopolysaccharide (LPS) stimulates the production of a variety of cytokines, including TNF-alpha, from human PBMC; these cytokines in turn influence the development of T cells, supporting a T helper 1 conducive milieu. Human PBMC prepared from whole blood by buoyant density centrifugation were resuspended in CTCM. […] Following incubation for 24 h at 37° C. in 5% CO2-air, the cell culture supernatants were collected and tested for TNF-alpha levels by ‘sandwich’ ELISA. Briefly, 96-well Nunc MaxiSorp (Life Technologies, Paisley, UK) plates were coated with 50 μl of a 2 μg/ml solution of mouse anti-human TNF-alpha monoclonal antibody (Pharmingen, UK) in 0.05 M carbonate/bicarbonate buffer, pH 9.6 overnight at 4° C. After washing the plates three times with PBS-Tween, which contained phosphate buffered saline (PBS) with 0.5% (vol/vol) Tween 20 (Sigma, Poole, UK), the plates were blocked with 1% (wt/vol) bovine serum albumin (BSA) (Sigma, Poole, UK) at room temperature for 2 h. Following three washes with PBS-Tween, 50 μl of cell culture supernatants were added and incubated overnight at 4° C.; standard human TNF-alpha (Pharmingen, UK) ranging from 2000 to 31.25 pg/ml were included for each plate. After four washes with PBS-Tween, 50 μl of a second antibody, biotinylated mouse anti-human TNF-alpha monoclonal antibody (Pharmingen, UK) was added at 0.5 μg/1 ml diluted in 1% BSA in PBS-Tween and incubated at room temperature for 1 h. Following four washes, the bound biotinylated antibody was detected with 50 μl of a 1:1,000 dilution of Streptavidin-peroxidase (Pharmingen, UK). At the end of an hour incubation at room temperature, the plates were thoroughly washed six times with PBS-Tween and the assay was developed by the addition of 100 μl of 0.1 mg/ml of tetramethyl benzidine subtrate (Sigma, Poole, UK) in 0.1 M sodium acetate buffer, pH 6 containing 0.03% H2O2. The enzyme reaction was stopped with 50 μl of 2.5 M H2SO4 after an incubation of 10 minutes at room temperature and the development was read at 450 nm with a spectrophotometric 96-well plate reader (Dynex).
compound,measurement,setting,value
"O=C(CCCCCCCCCBr)CC(=O)N[C@H]1CCOC1=O [Example 7, N-(12-Bromo-3-oxododecanoyl)-L-homoserine lactone]",IC50,murine splenocytes,6 µM
same,IC50,human PBMC; human PBMC source B,20 µM
same,IC50,human PBMC; human PBMC source D,7 µM
same,IC50,TNF-alpha,63 µM
